Experimental data as given in patent US9714224B2, “Heterocyclic compounds and methods of their use” (Novartis AG, priority 2013, dated 2017).

Target: AT2 receptor (Homo sapiens (Human), UniProt P50052)
Test: AT2 receptor binding assay ([125I]-CGP42112A displacement, HEK293/AT2 receptor cell membranes)
Details: membranes of HEK293 cells transiently transfected with AT2 receptor; radioligand [125I]-CGP42112A; RT, 1.5 hrs
Protocol: Biological Example 1: AT2 Receptor Binding
• 1. Trypsin-EDTA (for preparation of 100 mL) • Trypsin 0.25 g • 2% EDTA 2 mL • PBS 98 mL • Dissolve trypsin in 2% EDTA and PBS completely; sterilize the solution by passing through a […] membrane filter; store at 4° C. • 2. DMEM medium (for preparation of IL) • The powder was dissolved into 950 mL of distilled water with gentle stirring until the solution becomes clear. • Add NaHCO3 1.176 g for DMEM medium. • Adjust pH of medium to 0.2-0.3 below final working pH using 1 M NaOH or 1 M HCl. Add slowly with stirring. • Dilute to 1 liter with ddH2O. • Sterilize the medium immediately by filtration. • Store at 4° C. • 3. TE buffer • 20 mM Tris-HCl, pH 7.4. • 5 mM EDTA • 4. Binding Assay Buffer • 50 mM HEPES, pH 7.4 • 5 mM MgCl2 • 1 mM CaCl2 • 0.2% BSA • 5. […] Cells were ready for transfection after overnight incubation (the confluence reaches around 80%). • 75 μL Lipofectamine™ 2000 diluted in 6.25 mL OptiMEM I Reduced Serum Medium, was mixed gently, and incubated at room temperature for 5 minutes, 50 μg expression plasmid DNA diluted in 6.25 mL OptiMEM I Reduced Serum Medium without serum was mixed gently. • After the 5 minute incubation, the diluted DNA was combined with the diluted Lipofectamine™ 2000 (total volume is 12.5 mL). […]

Chain of AT2 receptor (P50052 whole entry, species assumed): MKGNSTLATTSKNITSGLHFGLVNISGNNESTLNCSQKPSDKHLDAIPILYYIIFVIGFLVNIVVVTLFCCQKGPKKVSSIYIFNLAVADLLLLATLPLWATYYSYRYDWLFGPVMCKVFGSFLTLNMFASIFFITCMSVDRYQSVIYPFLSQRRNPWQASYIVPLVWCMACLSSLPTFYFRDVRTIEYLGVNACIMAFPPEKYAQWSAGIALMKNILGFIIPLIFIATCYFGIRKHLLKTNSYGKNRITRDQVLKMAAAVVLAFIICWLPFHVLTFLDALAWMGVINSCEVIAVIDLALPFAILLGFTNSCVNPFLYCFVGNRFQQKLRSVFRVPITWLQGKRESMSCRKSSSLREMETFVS

IC50 [nM]	SMILES
431	COc1ccc2c(c1OCc1ccccc1)CC(C(=O)O[C@@H]1O[C@H](C(=O)O)[C@@H](O)[C@H](O)[C@H]1O)N(C(=O)C(c1ccccc1)c1ccccc1)C2 (some centres unmarked) [Compound 33]
1790	COc1ccc2c(c1O)C[C@@H](C(=O)NS(=O)(=O)N(C)C)N(C(=O)C(c1ccccc1)c1ccccc1)C2 [Compound 41]
